# Columns and labels:
# [1] = molecular target: T1, human recombinant wild-type ALK kinase domain (amino acids 1093-1411) (Homo sapiens, UniProt Q9UM73); test: Wild-type ALK enzyme assay (microfluidic mobility shift); assay type: biochemical; conditions: ATP 60 μM, competitive inhibition fit, read-out: WT ALK enzyme assay (Ki)
# T1 construct: ALK kinase domain (amino acids 1093-1411); made in house
# Protocol: The reactions were incubated for 1 h at room temperature, stopped by the addition of 0.1 M EDTA, pH 8, and the extent of reactions (˜15-20% conversion with no inhibitor) was determined after electrophoretic separation of the fluorescently labeled peptide substrate and phosphorylated product on an LabChip EZ Reader II (Caliper Life Sciences, Hopkinton, Mass.).
# [2] = molecular target: T2, human recombinant L1196M ALK kinase domain (amino acids 1093-1411) (Homo sapiens, UniProt Q9UM73, L1196M); test: L1196M mutant ALK enzyme assay (microfluidic mobility shift); assay type: biochemical; conditions: ATP 60 μM, 0.5 nM enzyme, competitive inhibition fit; read-out: L1196M ALK enzyme assay (Ki)
# T2 construct: ALK kinase domain (amino acids 1093-1411); made in house
# [3] = molecular target: T3, WT EML4-ALK (NIH-3T3 EML4-ALK wt v1 cells) (Homo sapiens, UniProt Q9UM73); test: Cellular phospho-ALK (Tyr1604) ELISA assay for WT EML4-ALK; assay type: cell-based; conditions: 1 hour, read-out: ELISA assay for WT EML4-ALK (IC50)
# T3 construct: expressed in transfected cells; the other entry of the earlier key: EML4 (Q9HC35, Echinoderm microtubule-associated protein-like 4)
# [4] = molecular target: T4, L1196M EML4-ALK (NIH-3T3 EML4-ALK v1 L1196M cells) (Homo sapiens, UniProt Q9UM73, L1196M); test: Cellular phospho-ALK (Tyr1604) ELISA assay for L1196M EML4-ALK; assay type: cell-based; conditions: NIH-3T3 EML4-ALK v1 L1196M cells, 1 hour, phospho-ALK (Tyr1604); read-out: ELISA assay for L1196M EML4-ALK (IC50)
# T4 construct: expressed in transfected cells; the other entry of the earlier key: EML4 (Q9HC35, Echinoderm microtubule-associated protein-like 4)
# Protocol: Cellular Phospho-ALK (Tyr1604) ELISA Assay for EML4-ALK:
# The cells were maintained at 37° C. in a 5% CO2 incubator in DMEM (Invitrogen, Carlsbad, Calif.) medium supplemented with 1% L-glutamine, 1% penicillin and streptomycin, 1 ug/ml puromycin and 10% new born calf serum (NCS) in T-75 flasks.
# Cells were washed with PBS and re-suspended in DMEM medium supplemented with 0.5% NCS and 1% pen/strep and seeded into 96-well plates at density of 20,000 cells/well/100 μl and incubated in the incubator at 37° C. and 5% CO2. After 20 hours of incubation, 100 μl of assay media (DMEM) in presence of designated PF-compounds concentrations or controls (DMSO) were added into plates and incubated for 1 hour in the incubator. Media was then removed and lysis buffer, containing phosphatase inhibitors and phenylmethanesulfonyl fluoride (PMSF), was added to wells and shaken at 4° C. for 30 minutes to generate protein lysates.
# A phospho-ALK (Tyr1604) rabbit antibody was coated onto the 96-well microplates. 50 μl of cell lysates were added to the antibody coated plate and incubated at room temperature for 2 hours. Following extensive washing with 0.1% Tween 20 in PBS to remove unbound materials, ALK mouse mAb was added to detect captured phospho-ALK (Tyr1604) and phospho-ALK fusion proteins. Anti-mouse IgG, HRP-linked antibody was then used to recognize the bound detection antibody. Finally, the chemiluminescent reagent was added and incubated for 10 minutes for signal development. The assay plates were read in the Envision plate reader in the luminescent mode. IC50 values were calculated by a concentration-response curve fitting using a four-parameter analytic method.
Ki [1],Ki [2],IC50 [3],IC50 [4],SMILES
2.93 nM,9.61 nM,40.8 nM,350 nM,"CC1c2nn(C)c(C#N)c2-c2cnc(N)c(n2)OCc2cc(F)ccc2C(=O)N1C (stereo not drawn) [Example 78, 7-amino-12-fluoro-2,16,17-trimethyl-15-oxo-10,15,16,17-tetrahydro-2H-8,4-(azeno)pyrazolo[4,3-h][2,5,11]benzoxadiazacyclotetradecine-3-carbonitrile]"
0.177 nM,0.315 nM,0.68 nM,5.88 nM,"C[C@H]1Oc2nc(cnc2N)-c2c(nn(CC(F)F)c2C#N)CN(C)C(=O)c2ccc(F)cc21 [Example 91, (10R)-7-amino-2-(2,2-difluoroethyl)-12-fluoro-10,16-dimethyl-15-oxo-10,15,16,17-tetrahydro-2H-8,4-(azeno)pyrazolo[4,3-h][2,5,11]benzoxadiazacyclotetradecine-3-carbonitrile]"
0.23 nM,0.21 nM,0.47 nM,3.66 nM,"CC(C)n1nc2c(c1C#N)-c1cnc(N)c(n1)O[C@H](C)c1cc(F)ccc1C(=O)N(C)C2 [Example 92, (10R)-7-amino-12-fluoro-10,16-dimethyl-15-oxo-2-(propan-2-yl)-10,15,16,17-tetrahydro-2H-8,4-(azeno)pyrazolo[4,3-h][2,5,11]benzoxadiazacyclotetradecine-3-carbonitrile]"
0.048 nM,0.3 nM,3.23 nM,31.7 nM,"C[C@H]1Oc2nc(cnc2N)-c2c(nn(C3COC3)c2C#N)CN(C)C(=O)c2ccc(F)cc21 [Example 93, (10R)-7-amino-12-fluoro-10,16-di methyl-2-(oxetan-3-yl)-15-oxo-10,15,16,17-tetrahydro-2H-8,4-(azeno) pyrazolo[4,3-h][2,5,11]benzoxadiazacyclotetradecine-3-carbonitrile]"
0.56 nM,7.3 nM,9.99 nM,447 nM,"CCc1snc2c1-c1cnc(N)c(c1)O[C@H](C)c1cc(F)ccc1C(=O)N(C)C2 [Example 110, (10R)-7-amino-3-ethyl-12-fluoro-10,16-dimethyl-16,17-dihydro-8,4-(metheno)[1,2]thiazolo[4,3-h][2,5,11]benzoxadiazacyclotetradecin-15(10H)-one]"
0.059 nM,0.54 nM,1.42 nM,32.5 nM,"COc1noc2c1-c1cnc(N)c(c1)O[C@H](C)c1cc(F)ccc1C(=O)N(C)C2 [Example 111, (10R)-7-amino-12-fluoro-3-methoxy-10,16-dimethyl-16,17-dihydro-8,4-(metheno)[1,2]oxazolo[4,5-h][2,5,11]benzoxadiazacyclotetradecin-15(10H)-one]"
0.32 nM,3.4 nM,9.67 nM,248 nM,"CCc1nsc2c1-c1cnc(N)c(c1)O[C@H](C)c1cc(F)ccc1C(=O)N(C)C2 [Example 112, (10R)-7-amino-3-ethyl-12-fluoro-10,16-dimethyl-16,17-dihydro-8,4-(metheno)[1,2]thiazolo[4,5-h][2,5,11]benzoxadiazacyclotetradecin-15(10H)-one]"
0.271 nM,1.36 nM,3.29 nM,78.2 nM,"C[C@H]1Oc2cc(cnc2N)-c2c(C#N)nn(C)c2CN(C)C(=O)c2ccc(F)cc21 [Example 114, (10R)-7-amino-12-fluoro-1,10,16-trimethyl-15-oxo-10,15,16,17-tetrahydro-1H-8,4-(metheno)pyrazolo[4,3-h][2,5,11]benzoxadiazacyclotetradecine-3-carbonitrile]"
< 0.08 nM,0.09 nM,0.96 nM,8.18 nM,"C[C@H]1Oc2nc(cnc2N)-c2c(C#N)nn(C)c2CN(C)C(=O)c2ccc(F)cc21 [Example 115, (10R)-7-amino-12-fluoro-1,10,16-trimethyl-15-oxo-10,15,16,17-tetrahydro-1H-8,4-(azeno)pyrazolo[4,3-h][2,5,11]benzoxadiazacyclotetradecine-3-carbonitrile]"
